Source: US20220235343A1, “NOVEL ADP-RIBOSYL CYCLASE AND INHIBITOR THEREOF” (INDUSTRIAL COOPERATION FOUNDATION CHONBUK NATIONAL …, priority 2019, published 2022)

Molecular target: T1, new ADP-ribosyl cyclase (ADPRC) of SEQ ID NO 1 (Mus musculus, UniProt P14094)
T1 construct: FLAG (N); made in house; host or cells: HEK293 cells or MES13 cells (transient transfection)
Test: Inhibition of NAD glycohydrolase (NADase) activity of new ADPRC
Assay type: biochemical
Conditions: as compared to the control group; ε-NAD substrate, 37° C. 1 hour; inhibitor concentration not given; FIG. 5
Description: In order to investigate the ADP-ribosyl cyclase (ADPRC) activity of SEQ ID NO 1, a FLAG-ADPRC plasmid was prepared by ligating a cDNA sequence encoding ADPRC into a FLAG-CMV-2 vector and the overexpression of new ADPRC was induced by treating HEK293 cells or MES13 cells using a transfection reagent. The overexpressed new ADPRC was lysed with a lysis buffer. 45 μL of the lysed sample was treated with 5 μL of 2 mM ε-NAD (nicotinamide 1,N6-ethenoadenine dinucleotide) and incubated at 37° C. for 1 hour. Then, the enzyme-substrate reaction was stopped by treating with 50 μL of 10% trichloroacetic acid. After centrifuging for 10 minutes and adding 80 μL of the supernatant to 720 μL of 0.1 M sodium phosphate buffer, absorbance was measured at 297 nm (excitation) and 410 nm (emission) with a fluorescence spectrometer.
In order to find an inhibitor which inhibits the activation of new ADP-ribosyl cyclase (ADPRC) of SEQ ID NO 1, 5 μL of each of 4,4′-dihydroxyazobenzene (4-DHAB, TCI (Japan)), 2,2′-dihydroxyazobenzene (2-DAB, Sigma-Aldrich (USA)), 2-(3,4-dihydroxyphenyl)-3,5,7-trihydroxychromen-4-one (Quercetin, Sigma-Aldrich (USA)) and San4825 (synthesized by Kannt A et al. [Kannt A, Sicka K, Kroll K, Kadereit D, Gogelein H. Naunyn. Schmiedebergs. Arch. Pharmacol. 385: 717-727, 2012], China) and 2-(1,3-benzoxazol-2-ylamino)-1-methylquinazoline-4(1H)-one (2-BMQ) and 1,4-dicaffeoylquinic acid (1,4-DCQA, Biopurify (China), hereinafter DCQA), which were newly found through screening, was reacted with 40 μL of new ADPRC in iced water for 15 minutes. Then, reaction was conducted at 37° C. for 1 hour after treating with 5 μL of 2 mM ε-NAD (nicotinamide 1,N6-ethenoadenine dinucleotide). Then, the enzyme-substrate reaction was stopped by treating with 50 μL of 10% trichloroacetic acid. After centrifuging for 10 minutes and adding 80 μL of the supernatant to 720 μL of 0.1 M sodium phosphate buffer, absorbance was measured at 297 nm (excitation) and 410 nm (emission) using a fluorescence spectrometer.

NAD glycohydrolase (NADase) activity inhibited [%]	Structure (SMILES)
36.49	Cn1c(Nc2nc3ccccc3o2)nc(=O)c2ccccc21 [2-BMQ, 2-(1,3-benzoxazol-2-ylamino)-1-methylquinazoline-4(1H)-one]
42.40	Oc1ccc(N=Nc2ccc(O)cc2)cc1 [4-DHAB, 4,4′-dihydroxyazobenzene]
